Data: patent US11180462B2, “Microbiocidal oxadiazole derivatives” (SYNGENTA PARTICIPATIONS AG, priority 2015, dated 2021)

How the values were obtained:
[1] = tested on: Glomerella lagenarium (Colletotrichum lagenarium); assay: Fungicidal activity against Glomerella lagenarium (Colletotrichum lagenarium) liquid culture / cucumber / preventative (anthracnose); type: cell-based; details: Colletotrichum orbiculare; 20 ppm in the applied formulation; liquid culture (PDB), growth inhibition measured photometrically after 3 to 4 days; compared to untreated control; read-out: disease control
In short: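 Percent activity against the untreated check was derived from photometric growth measurements made 2 to 7 days after conidia in potato dextrose broth were combined with compound at 20 ppm. Cultures were kept dark at 24 °C and 96% humidity.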

[2] = tested on: Puccinia recondita f. Sp. Tritici; assay: Fungicidal activity against Puccinia recondita f. sp. tritici / wheat / leaf disc preventative (brown rust); type: in vivo; details: foliar, 200 ppm in the applied formulation, wheat leaf segments, preventative, compared to untreated control leaf disks, read-out: disease control
In short: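 Percent disease control relative to untreated check segments is scored once disease develops, 7 to 9 days after application. Wheat cv. Kanzler segments receive compound spray (200 ppm in formulation) one day before spore inoculation, then sit at 19° C. and 75% rh under 12 h light/12 h dark.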

Phakopsora Pachyrhizi = assay: Fungicidal activity against Phakopsora pachyrhizi / soybean / leaf disc preventative (Asian soybean rust); type: in vivo; details: foliar, 200 ppm in the applied formulation, soybean leaf disks, compared to untreated control leaf disks, read-out: disease control
In short: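 Scored 12 to 14 days post-application as percent control relative to untreated check discs, rust spores were sprayed under the disc one day after compound treatment. Incubation: 20°C, 75% rh, first 24–36 h in darkness, then 12 h daily light; discs kept on water agar.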

[3] = tested on: Puccinia recondita f. Sp. Tritici; assay: Fungicidal activity against Puccinia recondita f. sp. tritici / wheat / leaf disc curative (brown rust); type: in vivo; details: foliar, 24 h, 200 ppm in the applied formulation, wheat leaf segments, curative (applied 1 day after inoculation), compared to untreated control leaf disks, read-out: disease control
In short: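 Inoculate cv. Kanzler segments on agar; hold dark, 19° C, 75% RH. Spray diluted formulated compound at day 1. Incubate 12 h light/12 h dark, same temperature and humidity; score % control vs untreated 6–8 days later.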

O=C(C1CCCO1)N(O)Cc1ccc(-c2noc(C(F)(F)F)n2)cc1 (stereo not shown) [Compound 1.770, N-hydroxy-N-[[4-[5-(trifluoromethyl)-1,2,4-oxadiazol-3-yl]phenyl]methyl]-tetrahydrofuran-2-carboxamide]
≥ 80%: inhibition of growth at 20 ppm [1] | pest or weed control at 200 ppm [2] | pest or weed control at 200 ppm (Phakopsora Pachyrhizi) | pest or weed control at 200 ppm [3]

N#CCC(=O)N(O)Cc1ccc(-c2noc(C(F)(F)F)n2)cc1 [Compound 1.771, 2-cyano-N-hydroxy-N-[[4-[5-(trifluoromethyl)-1,2,4-oxadiazol-3-yl]phenyl]methyl]-acetamide]
≥ 80%: inhibition of growth at 20 ppm [1] | pest or weed control at 200 ppm [2] | pest or weed control at 200 ppm (Phakopsora Pachyrhizi) | pest or weed control at 200 ppm [3]

COC(C)C(=O)N(O)Cc1ccc(-c2noc(C(F)(F)F)n2)cc1 (stereo not shown) [Compound 1.772, N-hydroxy-2-methoxy-N-[[4-[5-(trifluoromethyl)-1,2,4-oxadiazol-3-yl]phenyl]methyl]-propanamide]
≥ 80%: inhibition of growth at 20 ppm [1] | pest or weed control at 200 ppm [2] | pest or weed control at 200 ppm (Phakopsora Pachyrhizi) | pest or weed control at 200 ppm [3]

CC(=O)N(O)Cc1ccc(-c2noc(C(F)(F)F)n2)cc1 [Compound 1.773, N-hydroxy-N-[[4-[5-(trifluoromethyl)-1,2,4-oxadiazol-3-yl]phenyl]methyl]-acetamide]
≥ 80%: inhibition of growth at 20 ppm [1] | pest or weed control at 200 ppm [2] | pest or weed control at 200 ppm (Phakopsora Pachyrhizi) | pest or weed control at 200 ppm [3]

O=C(CC1CC1)N(O)Cc1ccc(-c2noc(C(F)(F)F)n2)cc1 [Compound 1.774, 2-cyclopropyl-N-hydroxy-N-[[4-[5-(trifluoromethyl)-1,2,4-oxadiazol-3-yl]phenyl]methyl]-acetamide]
≥ 80%: inhibition of growth at 20 ppm [1] | pest or weed control at 200 ppm [2] | pest or weed control at 200 ppm (Phakopsora Pachyrhizi) | pest or weed control at 200 ppm [3]

O=C(CC1CC1)ON(Cc1ccc(-c2noc(C(F)(F)F)n2)cc1)C(=O)CC1CC1 [Compound 1.775, [(2-cyclo-propylacetyl)-[[4-[5-(trifluoromethyl)-1,2,4-oxadiazol-3-yl]phenyl]methyl]-amino] 2-cyclopropylacetale]
≥ 80%: inhibition of growth at 20 ppm [1] | pest or weed control at 200 ppm [2] | pest or weed control at 200 ppm (Phakopsora Pachyrhizi) | pest or weed control at 200 ppm [3]

CC(=O)ON(Cc1ccc(-c2noc(C(F)(F)F)n2)cc1)C(C)=O [Compound 1.776, (acetyl-[[4-[5-(trifluoromethyl)-1,2,4-oxadiazol-3-yl]phenyl]methyl]-amino] acetate]
≥ 80%: inhibition of growth at 20 ppm [1] | pest or weed control at 200 ppm [2] | pest or weed control at 200 ppm (Phakopsora Pachyrhizi) | pest or weed control at 200 ppm [3]

COCC(=O)N(Cc1ccc(-c2noc(C(F)(F)F)n2)cc1)C1CC1 [Compound 1.777, N-cyclopropyl-2-methoxy-N-[[4-[5-(trifluoromethyl)-1,2,4-oxadiazol-3-yl]phenyl]methyl]-acetamide]
≥ 80%: inhibition of growth at 20 ppm [1] | pest or weed control at 200 ppm [2] | pest or weed control at 200 ppm (Phakopsora Pachyrhizi) | pest or weed control at 200 ppm [3]

CON(Cc1ccc(-c2noc(C(F)(F)F)n2)cc1)C(=O)CO [Compound 1.778, 2-hydroxy-N-methoxy-N-[[4-[5-(trifluoromethyl)-1,2,4-oxadiazol-3-yl]phenyl]methyl]-acetamide]
≥ 80%: inhibition of growth at 20 ppm [1] | pest or weed control at 200 ppm [2] | pest or weed control at 200 ppm (Phakopsora Pachyrhizi) | pest or weed control at 200 ppm [3]

CON(Cc1ccc(-c2noc(C(F)(F)F)n2)cc1)C(=O)C(C)(C)OC [Compound 1.779, N,2-dimethoxy-2-methyl-N-[[4-[5-(trifluoromethyl)-1,2,4-oxadiazol-3-yl]phenyl]methyl]-propanamide]
≥ 80%: inhibition of growth at 20 ppm [1] | pest or weed control at 200 ppm [2] | pest or weed control at 200 ppm (Phakopsora Pachyrhizi) | pest or weed control at 200 ppm [3]
